Results taken from US12274732B2, “Anti-pathogen composition and methods of use thereof” (Tenfold Technologies, LLC, priority 2017, dated 2025).
≈ marks a conversion by molar mass, not a printed value. Where two headings read alike, the source gives them in different places.

What was measured:
Type in all cases: cell-based
Candida albicans = test: In vitro antimicrobial activity against Candida albicans; conditions: for IC50: Candida albicans, read-out: C. albicans IC50
Protocol: (§1) Fifty organic extracts were prepared from 25 whole broth of four microbial strains (MS1479, MS2379, MS2820, and MS2414), which were fermented in different media for the antimicrobial testing. Note each whole broth culture generated one n-butanol extract from cultural supernatant and one methanol extract from cell pellets.
(§2) The antimicrobial activities of the 50 organic extracts were studied against three fungal pathogens—Candida albicans, Aspergillus fumigatus, and Cryptococcus neoformans—and five bacterial strains-Methicillin-resistant Staphylococcus aureus (MIRSA), Escherichia coli, Pseudomonas aeruginosa, Klebsiella pneumoniae, and Vancomycin-resistant Enterococcus faecium (VRE) (FIG. 2). The test concentrations for all extracts were in the range of 8-200 μg/mL (Table 3).
(§3) The antimicrobial activities of identified fusaricidins were in an in vitro study against several clinically relevant microbes. […] For the in-vitro assays against bacteria, fusaricidins were tested against methicillin-resistant Staphylococcus aureus, vancomycin-resistant Enterococcus faecium, Escherichia coli, and Pseudomonas aeruginosa using four antibacterial drugs methicillin, vancomycin, cefotaxime, and meropenem as controls. […] Fusaricidins were also tested against fungal pathogens Cryptococcus neoformans, Candida albicans, and Aspergillus fumigatus and compared with two antifungal drugs, fluconazole and amphotericin B (Table 13). Moreover, the anti-parasitic activity was also tested against L. donovani and T. brucei (Table 14).

Aspergillus fumigatus = test: In vitro antimicrobial activity against Aspergillus fumigatus; conditions: for IC50: Aspergillus fumigatus, read-out: A. fumigatus IC50
Protocol: as §1, §2, §3

Cryptococcus neoformans = test: In vitro antimicrobial activity against Cryptococcus neoformans; conditions: for IC50: Cryptococcus neoformans, read-out: C. neoformans IC50
Protocol: as §1, §2
The potent activities against the fungal pathogen C. neoformans and the gram-positive bacteria S. aureus, MRSA, and M. intracellulare were also shown in the crude extracts (FIG. 7).
as §3

[1] = test system: Methicillin-resistant Staphylococcus aureus (MRSA); test: In vitro antimicrobial activity against MRSA; conditions: for MIC: read-out: MRSA MIC (minimum inhibitory concentration)
Protocol: as §1, §2, §3

Escherichia coli = test: In vitro antimicrobial activity against Escherichia coli; conditions: for MIC: read-out: E. coli MIC (minimum inhibitory concentration)
Protocol: as §1, §2, §3

Pseudomonas aeruginosa = test: In vitro antimicrobial activity against Pseudomonas aeruginosa; conditions: for MIC: read-out: P. aeruginosa MIC (minimum inhibitory concentration)
Protocol: as §1, §2, §3

Klebsiella pneumoniae = test: In vitro antimicrobial activity against Klebsiella pneumoniae; conditions: test conc. 200-8 μg/mL (extracts), 100-4 or 10-0.4 μg/mL (drugs); for IC50: Klebsiella pneumoniae, read-out: K pneumoniae IC50
Protocol: as §1, §2

[2] = test system: Vancomycin-resistant Enterococcus faecium (VRE); test: In vitro antimicrobial activity against VRE; conditions: for MIC: read-out: VRE MIC (minimum inhibitory concentration)
Protocol: as §1, §2, §3

L. donovani = test: In-vitro antiparasitic activity against L. donovani
Protocol: as §3

THP-1 = test: Cytotoxicity against THP-1 cells (counter-screen of the antiparasitic assays)
Protocol: as §3

[3] = test conc. 200-8 μg/mL (extracts), 100-4 or 10-0.4 μg/mL (drugs)
[4] = Table 5, extracts tested at 8-200 μg/mL
[5] = ATCC 1708 / MRSA, Table 13, Methicillin-resistant Staphylococcus aureus ATCC 1708, read-out: MRSA IC50 (50% growth inhibitory concentration)
[6] = ATCC 1708 / MRSA, Table 13, Methicillin-resistant Staphylococcus aureus ATCC 1708
[7] = Staphylococcus aureus, MRSA, test conc. 200-8 μg/mL (extracts), 100-4 or 10-0.4 μg/mL (drugs), read-out: MRS IC50
[8] = ATCC2452, Table 13, Escherichia coli ATCC 2452, read-out: E. coli IC50 (50% growth inhibitory concentration)
[9] = ATCC2452, Table 13, Escherichia coli ATCC 2452
[10] = Escherichia coli, test conc. 200-8 μg/mL (extracts), 100-4 or 10-0.4 μg/mL (drugs), read-out: E. coli IC50
[11] = ATCC2108, Table 13, Pseudomonas aeruginosa ATCC 2108, read-out: P. aeruginosa IC50 (50% growth inhibitory concentration)
[12] = ATCC2108, Table 13, Pseudomonas aeruginosa ATCC 2108
[13] = Pseudomonas aeruginosa, test conc. 200-8 μg/mL (extracts), 100-4 or 10-0.4 μg/mL (drugs), read-out: P. aeruginosa IC50
[14] = ATCC 700221 / VRE, Table 13, Vancomycin-resistant Enterococcus faecium ATCC 700221, read-out: VRE IC50 (50% growth inhibitory concentration)
[15] = ATCC 700221 / VRE, Table 13, Vancomycin-resistant Enterococcus faecium ATCC 700221
[16] = test conc. 200-8 μg/mL (extracts), 100-4 or 10-0.4 μg/mL (drugs), read-out: VRE IC50
[17] = Table 12, highest test conc. fusaricidins 20, controls 100 μg/mL
[18] = Table 12, lowest concentration that allows no detectable growth

C[C@@H](O)[C@H]1C(=O)N2C(C(=O)O)=C(S[C@@H]3CN[C@H](C(=O)N(C)C)C3)[C@H](C)[C@H]12 [Meropenem]
IC50 (Candida albicans; [3]): > 100 mg/L
C. albicans IC50 (Candida albicans; [4]): >100 mg/L
IC50 (Aspergillus fumigatus; [3]): > 100 mg/L
A. fumigatus IC50 (Aspergillus fumigatus; [4]): >100 mg/L
IC50 (Cryptococcus neoformans; [3]): > 100 mg/L
C. neoformans IC50 (Cryptococcus neoformans; [4]): >100 mg/L
IC50 [1, 5]: 5.7 mg/L (≈ 14.9 µM)
MIC [1, 6]: 12.5 mg/L (≈ 32.6 µM)
IC50 [1, 7]: 2.75 mg/L (≈ 7.17 µM)
IC50 (Escherichia coli; [8]): 5.4 mg/L (≈ 14.1 µM)
MIC (Escherichia coli; [9]): 12.5 mg/L (≈ 32.6 µM)
IC50 (Escherichia coli; [10]): 11.5 mg/L (≈ 30 µM)
IC50 (Pseudomonas aeruginosa; [11]): 5.9 mg/L (≈ 15.4 µM)
MIC (Pseudomonas aeruginosa; [12]): 25 mg/L (≈ 65.2 µM)
IC50 (Pseudomonas aeruginosa; [13]): > 100 mg/L
IC50 (Klebsiella pneumoniae): 18.1 mg/L (≈ 47.3 µM)
IC50 [2, 14]: > 100 mg/L
MIC [2, 15]: > 100 mg/L
VRE IC50 [2, 4]: >100 mg/L
IC50 [2, 16]: > 100 mg/L

C[C@@H]1[C@H](O)[C@@H](C)/C=C/C=C/C=C/C=C/C=C/C=C/C=C/[C@H](O[C@@H]2O[C@H](C)[C@@H](O)[C@H](N)[C@@H]2O)C[C@@H]2O[C@](O)(C[C@@H](O)C[C@@H](O)[C@H](O)CC[C@@H](O)C[C@@H](O)CC(=O)O[C@H]1C)C[C@H](O)[C@H]2C(=O)O [Amphotericin B]
C. albicans IC50 (Candida albicans; [4]): <0.1 mg/L
C. albicans IC50 (50% growth inhibitory concentration) (Candida albicans; [17]): 0.4 mg/L
C. albicans MIC (minimum inhibitory concentration) (Candida albicans; [18]): 0.8 mg/L
C. albicans IC50 (Candida albicans; [3]): <0.1 mg/L
A. fumigatus IC50 (Aspergillus fumigatus; [4]): 1.407 mg/L
A. fumigatus IC50 (50% growth inhibitory concentration) (Aspergillus fumigatus; [17]): 2.4 mg/L
A. fumigatus MIC (minimum inhibitory concentration) (Aspergillus fumigatus; [18]): 3.1 mg/L
A. fumigatus IC50 (Aspergillus fumigatus; [3]): 1.407 mg/L
IC50 against C. neoformans (Cryptococcus neoformans; Example 4, column fractions of MS2414 extract (FIG. 7)): 0.15 mg/L (≈ 0.162 µM)
C. neoformans IC50 (Cryptococcus neoformans; [4]): 0.24 mg/L
C. neoformans IC50 (50% growth inhibitory concentration) (Cryptococcus neoformans; [17]): 0.3 mg/L
C. neoformans MIC (minimum inhibitory concentration) (Cryptococcus neoformans; [18]): 0.4 mg/L
C. neoformans IC50 (Cryptococcus neoformans; [3]): 0.24 mg/L
MRS IC50 [1, 4]: >100 mg/L
MRS IC50 [1, 3]: >100 mg/L
E. coli IC50 (Escherichia coli; [3]): >100 mg/L
P. aeruginosa IC50 (Pseudomonas aeruginosa; [3]): >100 mg/L
K pneumoniae IC50 (Klebsiella pneumoniae): >100 mg/L
VRE IC50 [2, 4]: >100 mg/L
VRE IC50 [2, 3]: >100 mg/L
L. donovani Amastigote IC50 (L. donovani; amastigote): 0.9 mg/L
L. donovani Amastigote/THP IC50 (L. donovani; amastigote/THP): 0.2/0.2 μg/mL
L. donovani Amastigote/THP IC90 (L. donovani; amastigote/THP, 90% inhibitory concentration): 0.2/0.2 μg/mL
L. donovani Amastigote IC90 (L. donovani; amastigote, 90% inhibitory concentration): 1.1 mg/L
L. donovani Promastigote IC50 (L. donovani; promastigote): 0.3 mg/L
L. donovani Promastigote IC90 (L. donovani; promastigote, 90% inhibitory concentration): 0.4 mg/L
THP-1 IC50 (THP-1): >2/>2 μg/mL
THP-1 IC90 (THP-1; 90% inhibitory concentration): >2/>2 μg/mL

COc1cccc(OC)c1C(=O)N[C@@H]1C(=O)N2[C@@H]1SC(C)(C)[C@@H]2C(=O)O [Methicillin]
IC50 (Candida albicans; [3]): > 100 mg/L
C. albicans IC50 (Candida albicans; [4]): >100 mg/L
IC50 (Aspergillus fumigatus; [3]): > 100 mg/L
A. fumigatus IC50 (Aspergillus fumigatus; [4]): >100 mg/L
IC50 (Cryptococcus neoformans; [3]): > 100 mg/L
C. neoformans IC50 (Cryptococcus neoformans; [4]): >100 mg/L
IC50 [1, 5]: 12.1 mg/L (≈ 31.8 µM)
MIC [1, 6]: 50 mg/L (≈ 131 µM)
IC50 [1, 7]: 19 mg/L (≈ 49.9 µM)
IC50 (Escherichia coli; [8]): > 100 mg/L
MIC (Escherichia coli; [9]): > 100 mg/L
IC50 (Escherichia coli; [10]): > 100 mg/L
IC50 (Pseudomonas aeruginosa; [11]): 76 mg/L (≈ 200 µM)
MIC (Pseudomonas aeruginosa; [12]): > 100 mg/L
IC50 (Pseudomonas aeruginosa; [13]): 95.4 mg/L (≈ 251 µM)
IC50 (Klebsiella pneumoniae): > 100 mg/L
IC50 [2, 14]: > 100 mg/L
MIC [2, 15]: > 100 mg/L
VRE IC50 [2, 4]: >100 mg/L
IC50 [2, 16]: > 100 mg/L

OC(Cn1cncn1)(Cn1cncn1)c1ccc(F)cc1F [Fluconazole]
IC50 (Candida albicans; [3]): < 0.1 mg/L
C. albicans IC50 (Candida albicans; [4]): <0.1 mg/L
IC50 (Aspergillus fumigatus; [3]): > 100 mg/L
A. fumigatus IC50 (Aspergillus fumigatus; [4]): >100 mg/L
IC50 (Cryptococcus neoformans; [3]): 2.2 mg/L (≈ 7.18 µM)
IC50 [1, 7]: > 100 mg/L
MRS IC50 [1, 4]: >100 mg/L
IC50 (Escherichia coli; [10]): > 100 mg/L
IC50 (Pseudomonas aeruginosa; [13]): > 100 mg/L
IC50 (Klebsiella pneumoniae): > 100 mg/L
VRE IC50 [2, 4]: >100 mg/L
IC50 [2, 16]: > 100 mg/L
